The values that follow come from patent US10959427B2, “Attractant of ladybugs, aphid's natural enemy” (Zhejiang University, priority 2018, dated 2021).

The test system of this experiment is Coccinella septempunctata. Description: Wind tunnel experiment: behavioral responses of ladybugs to the attractant. It is filed as in vivo. Particulars: for Proportion of Knocking Filter Paper, Female Proportion / Proportion of Passing Through ½ of Wind Tunnel, Female Proportion / Proportion of Take Off, Female Proportion: female ladybugs; for Proportion of Knocking Filter Paper, Female Proportion / Proportion of Knocking Filter Paper, Male Proportion: number of insects knocking filter paper/total number of insects; for Proportion of Knocking Filter Paper, Female Proportion / Proportion of Passing Through ½ of Wind Tunnel, Female Proportion / Proportion of Take Off, Female Proportion / Proportion of Knocking Filter Paper, Male Proportion / Proportion of Passing Through ½ of Wind Tunnel, Male Proportion / Proportion of Take Off, Male Proportion: 30 min, 28° C., wind speed 0.3 m/s; for Proportion of Passing Through ½ of Wind Tunnel, Female Proportion / Proportion of Passing Through ½ of Wind Tunnel, Male Proportion: number of insects passing through ½ of wind tunnel/total number of insects; for Proportion of Take Off, Female Proportion / Proportion of Take Off, Male Proportion: number of take-off insects/total number of insects; for Proportion of Knocking Filter Paper, Male Proportion / Proportion of Passing Through ½ of Wind Tunnel, Male Proportion / Proportion of Take Off, Male Proportion: male ladybugs; for Attraction of ladybugs in the wind tunnel, result in words: summary of wind tunnel results. How it is done:
(§1) Wind tunnel experiments were performed using a wind tunnel device to determine the behavioral responses of ladybugs to the attractant. The wind tunnel device is 90 cm long, 35 cm wide and 35 cm high. The desired ladybugs were put into a glass tube 30 minutes before the test, and both the ends of the glass tube were sealed with absorbent cotton to adapt the ladybugs to the environment in the wind tunnel. The filter paper-loaded compound was placed on the upper air outlet, and the wind speed in the wind tunnel was 0.3 m/s. The whole process of bioassay was carried out at 28° C. The glass tube was placed at the end of the lower air outlet of the wind tunnel. Timing started and lasted for 30 min. The numbers of take-offs, directional flights, and proximity to attractant sources were recorded and their relative proportions were calculated. The experimental method was referred to the wind tunnel experiment of Binyameen M et al (Journal of Chemical Ecology, 2013, 39(10):1273-1283).
The behavioral responses of ladybugs to the attractants in Comparative Examples 1-5 were measured by using a wind tunnel device (same conditions as in Example 1).
as §1, with “to the attractants. The wind” for “to the attractant. The wind”, “glass tube with the ladybugs was placed” for “glass tube was placed”, “min. The proportions of take-offs,” for “min. The numbers of take-offs,”, “sources were recorded.” for “sources were recorded and their relative proportions were calculated. The experimental method was referred to the wind tunnel experiment of Binyameen M et al (Journal of Chemical Ecology, 2013, 39(10):1273-1283).”
Wind tunnel experiments were performed using a wind tunnel device to determine the behavioral responses of ladybugs to the attractants of Example 3 and Comparative Examples 6-10.
Wind tunnel experiments were performed using a wind tunnel device to determine the behavioral responses of ladybugs to the attractants of Example 4 and Comparative Examples11-20.
Note: Coccinella septempunctata were used in the above wind tunnel experiments; when the Rodolia limbata, Harmonia axyridis, Propylaea japonica and Chilocorus rubidus hope were taken as the experiment objects, the results (trend) were basically the same as that of Coccinella septempunctata.

For the compound `C=CC1(C)CCC(C(=C)C)CC1C(=C)C` (stereo not shown) [Comparative Example 16, 1-vinyl-1-methyl-2,4-di (propyl-1-ene-2-yl) cyclohexane], the “Proportion of Knocking Filter Paper, Female Proportion” value was determined as 0%; the “Proportion of Passing Through ½ of Wind Tunnel, Female Proportion” value is given as 13.3%; the “Proportion of Take Off, Female Proportion” value was found to be 0%; the “Proportion of Knocking Filter Paper, Male Proportion” value is reported as 11.7%. The “Proportion of Passing Through ½ of Wind Tunnel, Male Proportion” value (“Proportion … of Wind Tunnel, Male Proportion” for short) came to 73.3%; the “Proportion of Take Off, Male Proportion” value came out at 21.7%^; the “Attraction of ladybugs in the wind tunnel, result in words” value (shortened to “Attraction of ladybugs”) is recorded as “better effect on attracting male ladybugs but worse than Example 4”.

On to `CC(C)CC=O` [Comparative Example 19, isovaleraldehyde], for which the “Proportion of Knocking Filter Paper, Female Proportion” value came to 11.7%; the “Proportion of Passing Through ½ of Wind Tunnel, Female Proportion” value was 58.3%; the “Proportion of Take Off, Female Proportion” value worked out at 13.3%; the “Proportion of Knocking Filter Paper, Male Proportion” value came out at 15%. The “Proportion … of Wind Tunnel, Male Proportion” value turned out to be 56.7%; the “Proportion of Take Off, Male Proportion” value is reported as 10%; the “Attraction of ladybugs” value was “poor attraction to female and male ladybugs”.

For the compound `CCC/C=C/C(=O)O` [Comparative Example 18, trans-2-hexenoic acid], the “Proportion of Knocking Filter Paper, Female Proportion” value is 10%; the “Proportion of Passing Through ½ of Wind Tunnel, Female Proportion” value is 53.3%; the “Proportion of Take Off, Female Proportion” value was determined as 11.7%; the “Proportion of Knocking Filter Paper, Male Proportion” value was found to be 8.3%. Further, the “Proportion … of Wind Tunnel, Male Proportion” value was 46.7%; the “Proportion of Take Off, Male Proportion” value was determined as 20%; the “Attraction of ladybugs” value is “poor attraction to female and male ladybugs”.

On to `CC(C)=CCC/C(C)=C/CC/C(C)=C/CC/C=C(\C)CC/C=C(\C)CCC=C(C)C` [Comparative Example 20, squalene], for which the “Proportion of Knocking Filter Paper, Female Proportion” value was found to be 13.3%; the “Proportion of Passing Through ½ of Wind Tunnel, Female Proportion” value is 61.7%; the “Proportion of Take Off, Female Proportion” value was 20%; the “Proportion of Knocking Filter Paper, Male Proportion” value amounted to 6.7%. Besides, the “Proportion … of Wind Tunnel, Male Proportion” value was determined as 66.7%; the “Proportion of Take Off, Male Proportion” value was 26.8%^; the “Attraction of ladybugs” value is “number of insects knocking filter paper was significant less that the other examples”.
